Assay results as given in US20220274980A1, “PHARMACOLOGICAL INHIBITORS OF THE ENL YEATS DOMAIN” (priority 2019, published 2022).

Key:
BRD4 bromodomain 1 (BD1) = biological target: T1, BRD4 bromodomain 1 (BD1) (Homo sapiens, UniProt O60885); assay: BRD4 (BD1)-H4 tetra-acetylated HTRF histone-binding assay
T1 construct: Selectivity against BRD4 bromodomain 1 (BD1), measured by HTRF; His; purchased Cayman 11720
How it was run: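 Recombinant BRD4 BD1 (10 nM) was combined with 13.3 nM biotinylated tetra-acetylated H4 peptide, Eu-anti-His antibody and APC-streptavidin in HEPES buffer, pH 7. Compound was pin-transferred and plates incubated ≥2 h before HTRF reading (665/620 nm ratio). Percent inhibition was normalised to vehicle (maximum) and no-peptide (minimum) wells.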

[1] = Half-life in human liver microsomes; assay type: in vitro ADME; settings: read-out: t1/2 (min) human liver microsomes
[2] = Half-life in mouse liver microsomes; assay type: in vitro ADME; settings: read-out: t1/2 (min) mouse liver microsomes

- IC50 (BRD4 bromodomain 1 (BD1); Table 1): > 50 µM
- IC50 (BRD4 bromodomain 1 (BD1); Table 2): > 50 µM
- half-life [1]: 22.6 min
- half-life [2]: 9.98 min
SMILES: O=C(NC1CCC1)c1ccc2nc(-c3cccc(NS(=O)(=O)NCCN4CCCCC4)c3)cn2c1 [Compound 93]
